Data set [1] is described as follows: In vivo pharmacokinetics in beagle dogs. Particulars: dog, plasma, po, gavage, 10 mg/kg.
Data set [2] can be described thus: Metabolic stability in rat liver microsomes. Particulars: liver microsomes 0.5 mg/mL, NADPH, 1 μM compound, read-out: Rat microsomal T1/2. It is filed as in vitro ADME. As to the method: (§1) (1) Metabolic stability test: 150 μL of liver microsomes (final concentration was 0.5 mg/mL) were subjected to metabolic stability incubation, the system containing NADPH (final concentration was 1 mM), 1 μM of the test compound and the positive control midazolam or the negative control atenolol, the reaction was terminated with acetonitrile containing tinidazole at 0 min, 5 min, 10 min, and 30 min, respectively, then the mixture was vortexed for 10 min, and centrifuged at 15000 rmp for 10 min, 50 μL of the supernatant was injected into 96 well. The metabolic stability of the compound was calculated by measuring the relative reduction of the original drug. (See Table 3 for specific values)

Data set [3] in a line: In vivo pharmacokinetics in mice. Particulars: male, Balb c, mouse, plasma, po, 5 mg/kg; for AUC / Cmax / half-life: gavage. Here is the method: Six male SPF-grade SD rats or Balb c mice (Shanghai B&K laboratory animals) were divided into two groups and the test compounds were configured into suitable solutions or suspensions; one group was administered intravenously and one group was administered orally. Blood was collected by jugular vein puncture, and each sample was collected about 0.2 mL/time point, heparin sodium was used for anticoagulation, the blood collection time points were as follows: before administration and 5, 15 and 30 minutes, 1, 2, 4, 6, 8 and 24 h after administration, the blood sample was collected and placed on ice, centrifuged to separate the plasma (centrifugation conditions: 8000 rpm, 6 minutes, 2-8° C.), and the collected plasma was stored at −80° C. before analysis. The plasma samples were analyzed by LC-MS/MS.
According to the blood drug concentration data of the drug, the pharmacokinetic calculation software WinNonlin5.2 non-compartmental model was used to calculate the pharmacokinetic parameters AUC0-t, AUC0-∞, MRT0-∞, Cmax, Tmax, T1/2 and Vd and other parameters and their mean and standard deviation. In addition, the bioavailability (F) was calculated by the following formula.
For samples with a concentration lower than the lower limit of quantification, when calculating the pharmacokinetic parameters, the samples sampled before reaching Cmax should be calculated as zero, and samples sampled after reaching Cmax should be calculated as unquantifiable (BLQ).

Data set [4] can be described thus: Metabolic stability in dog liver microsomes. The data set is classed as in vitro ADME. Particulars: liver microsomes 0.5 mg/mL, NADPH, 1 μM compound, read-out: Dog microsomal T1/2. Here is the method:
as §1
(In general: Microsomes from liver hold many membrane-bound enzymes, among them those of drug oxidation.)

Data set [5] addresses T1, BRD4-BD2 (Homo sapiens, UniProt O60885).
T1 construct: purchased ReactionBiologyCorp; (RBC)
Nature of the data set: BRD4 AlphaScreen determination (BD2). It is filed as binding. Here is the method: (1) 1× Assay buffer was prepared according to the kit requirements of ReactionBiologyCorp. (RBC). (2) Compound concentration gradient preparation: the test compounds were tested at final concentrations starting at 10 μM, with 10 concentrations at 3-fold dilution and single well test was set for each concentration. The positive control compound(+)-JQ-1 was tested at final concentrations starting at 1 μM, with 10 concentrations at 3-fold dilution, and duplicated well test was set for each concentration. The solution was gradient diluted to the corresponding 1000-fold final concentration in a 384-well Source plate, and then 20 nL of the solution was transferred to the 384-well reaction plate with Echo550 to be measured. 20 nL of 100% DMSO was transferred to the Max well, and the highest concentration of the positive compounds were transferred to the Min wells. […] (6) 5 μL of 4× peptide solution was added to each well of the reaction plate, centrifuged at 1000 rpm for 1 min. (7) 10 μL of the assay solution was added, centrifuged at 1000 rpm for 60 seconds, the solution was mixed with gentle shaking, and incubated at room temperature for 60 minutes. (8) Reading with EnVision. (9) The IC50 values of the compounds for protein binding inhibition was obtained by fitting the dose-effect curve with the analytical software GraphPad Prism 5. (See Table 1 for specific values)

In data set [6] the target is T2, CYP2C19 (Homo sapiens, UniProt P33261).
T2 construct: human liver microsomes (final concentration was 0.2 mg/mL); from tissue; host or cells: human liver microsomes
T2 sequence (P33261 whole entry): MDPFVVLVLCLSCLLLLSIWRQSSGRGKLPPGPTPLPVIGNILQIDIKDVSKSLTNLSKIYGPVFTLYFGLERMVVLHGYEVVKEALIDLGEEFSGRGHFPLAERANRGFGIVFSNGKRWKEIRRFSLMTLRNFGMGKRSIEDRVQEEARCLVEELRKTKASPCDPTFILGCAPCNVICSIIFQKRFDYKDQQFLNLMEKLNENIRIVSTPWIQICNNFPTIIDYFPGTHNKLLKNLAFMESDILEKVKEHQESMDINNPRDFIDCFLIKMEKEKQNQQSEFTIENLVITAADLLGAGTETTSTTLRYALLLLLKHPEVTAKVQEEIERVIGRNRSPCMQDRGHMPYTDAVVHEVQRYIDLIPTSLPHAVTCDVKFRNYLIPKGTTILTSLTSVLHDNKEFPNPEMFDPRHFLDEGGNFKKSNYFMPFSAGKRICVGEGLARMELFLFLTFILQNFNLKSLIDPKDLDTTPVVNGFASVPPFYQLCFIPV
Nature of the data set: Direct inhibition test (DI test) in human liver microsomes, CYP2C19. The data set is classed as in vitro ADME. The following applies: read-out: inhibitory IC50 on CYP 2C19. Here is the method: (2) Direct inhibition test (DI test): 1004 of human liver microsomes (final concentration was 0.2 mg/mL) system was subjected to inhibition incubation directly, the system contains NADPH (final concentration was 1 mM), 10 μM compound, positive inhibitor cocktail (ketoconazole 10 μM, quinidine 10 μM, sulfapyrazole 100 μM, a-naphthoflavone 10 μM, tranylcypromine […]), negative control (0.1% DMSO BPS) and mixed probe substrate (midazolam 1004, testosterone 10004, dextromethorphan 10 μM, diclofenac 20 μM, phenacetin 100 μM, mephenytoin 100 μM), the reaction was terminated after incubation for 20 min. The relative enzyme activity was calculated by measuring the relative production of metabolites.

Data set [7] is described as follows: Metabolic stability in mouse liver microsomes. It is filed as in vitro ADME. The following applies: liver microsomes 0.5 mg/mL, NADPH, 1 μM compound, read-out: Mouse microsomal T1/2. As to the method: as §1
Data set [8] concerns MV4-11 cells. The data set is described as follows: Inhibition of proliferation of MV4-11 cells (CellTiter-Glo). The following applies: Homo sapiens, 72 h. It is filed as cell-based. Here is the method: Specific experimental steps: 1) Day 0: 96 inoculated cells were digested with trypsin and suspended in cell culture medium, the cell density was detected by an automatic cell counter and the cells were diluted with the culture medium to a suitable density, 100 μL of cell suspension was added to the 96-well plate, and the cell-free medium was used as a control well, and the wells were incubated in a 37° C., 5% CO2 cell incubator overnight; 2) Day 1: A total of 8 concentrations of the compound to be tested in the drug-treated cells were tested at 3-fold dilution, 10 μM was the starting assay concentration of the compound to be tested. Specific steps: 200× compound mother liquor was prepared, the compound was diluted with culture medium to a final concentration of […], that is, 3 μL of 200× compound was added to 197 μL of culture medium, 50 μL diluted compound was added to each well of the 96-well plate, and placed at 37° C., 5% CO2 cell culture incubator for 72 h; 3) Day 4: Cell viability detection: 96-well cell plate was first equilibrated to room temperature, 40 μL of CellTiter-Glo® reagent was added to each well, mixed on a shaker for 2 minutes to fully lyse the cells, incubated at room temperature for 10 minutes to stabilize the luminescence signal, and the luminescence value was read by the Envision microplate reader; 4) data processing was performed by GraphPad Prism 5.0 software to analyze the data, and nonlinear S-curve regression was used to fit the data to obtain a dose-effect curve, and from which the ICso value was calculated. Inhibition rate %=(DMSO treated cell wells−compound treated cell wells)/(DMSO treated cell wells−cell free medium wells)×100. The ICso value was obtained by the four-parameter regression method using the random software in the microplate reader. (See Table 2 for specific values)

pIC50: −log10 of the molar value. Like-named read-outs stand apart in the source and are kept apart here. A value given as a limit tells only on which side of the number the result lay.

For `Cc1cc(F)cc(C)c1Oc1ccc(C(C)(C)O)cc1-c1cn(C)c(=O)c2cc(C(=O)NC3CC(F)(F)C3)[nH]c12` [Embodiment 18, N-(3,3-difluorocyclobutyl)-7-(2-(4-fluoro-2,6-dimethylphenoxy)-5-(2-hydroxyprop-2-yl)phenyl)-5-methyl-4-oxo-4,5-dihydro-1H-pyrrolo[3,2-c] pyridine-2-amide], the AUC (as a rule, concentration integrated over time) was greater than 15 µM·h in data set [1] and greater than 5 µM·h in data set [3]. The figures for the Cmax in data set [1] and in data set [3] were 2000 nM and greater than 1500 nM, respectively. For the same compound, the half-life in data set [1] is greater than 2 h; in data set [3] it was greater than 3 h. The half-life at 1 μM stood at 1.38 h in data set [2], 6.67 h in data set [4] and 1.27 h in data set [7]. For the same compound, the bioavailability – broadly, the share of a dose that reaches the circulation, judged against a reference dose that is usually intravenous – in data set [3] was greater than 40%. Besides, the negative logarithm of the IC50 (pIC50) (as a rule, −log10 of the IC50, conventionally taken in molar units) is greater than 9.30 in data set [5] (AlphaScreen, protein binding inhibition, read-out: BRD4-BD2 IC50); less than 4.82 in data set [6]; 7.97 in data set [8].

On to `CCNC(=O)c1cc2c(=O)n(C)cc(-c3cc(C(C)(C)O)ccc3Oc3c(C)cc(F)cc3C)c2[nH]1` [compound 1, reference compound], for which the AUC in data set [1] was greater than 15 µM·h; in data set [3], greater than 5 µM·h. Besides, the values for the peak concentration (Cmax) in data set [1] and in data set [3] were 2000 nM and greater than 1500 nM, respectively. Further, the half-life was greater than 2 h in data set [1] and greater than 3 h in data set [3]. The bioavailability in data set [3] was greater than 40%. In addition, the pIC50 in data set [5] was 9.19; in data set [6], less than 4.82; in data set [8], 8.64.
